The term Ki denotes a dissociation constant, usually derived from enzyme kinetics or from competition with a known ligand. Read a high Ki as lower affinity. Broadly, the EC50 is the concentration at which the effect is half-maximal. Low readings indicate greater potency, high ones weaker potency.

Where a name gives a salt, the structure may show the parent alone. Read-outs that look alike come from different tables or passages of the source. Some results are limits rather than exact numbers.

The record followed here is patent publication US8551978B2 (Theravance, Inc., priority 2009, dated 2013).

Test [1] deals with hM3 muscarinic receptor (Homo sapiens (Human), UniProt P20309). Description: Radioligand binding assay for muscarinic receptors ([3H]-NMS displacement, CHO cell membranes). The protocol: The cells were grown in a 5% CO2, 37° C. incubator and lifted with 2 mM EDTA in dPBS. Cells were collected by 5 minute centrifugation at 650×g, and cell pellets were either stored frozen at −80° C. or membranes were prepared immediately for use. For membrane preparation, cell pellets were resuspended in lysis buffer and homogenized with a Polytron PT-2100 tissue disrupter (Kinematica AG; 20 seconds×2 bursts). Crude membranes were centrifuged at 40,000×g for 15 minutes at 4° C. The membrane pellet was then resuspended with re-suspension buffer and homogenized again with the Polytron tissue disrupter. The protein concentration of the membrane suspension was determined by the method described in Lowry et al., 1951, […], 193, 265. All membranes were stored frozen in aliquots at −80° C. or used immediately. […] The membranes were briefly homogenized using a Polytron tissue disruptor (10 seconds) prior to assay plate addition. […] The test compounds were initially dissolved to a concentration of 400 μM in dilution buffer and then serially diluted 5× with dilution buffer to final concentrations ranging from 10 μM to […]. The order of addition and volumes added to the assay plates were as follows: 25 μL radioligand, 25 μL diluted test compound, and 50 μL membranes. Assay plates were incubated for 6 hours at 37° C. […] Filter plates were rinsed three times with wash buffer (10 mM HEPES) to remove unbound radioactivity. The plates were then air-dried and 50 μL Microscint-20 liquid scintillation fluid (PerkinElmer, Inc.) were added to each well. The plates were then counted in a PerkinElmer Topcount liquid scintillation counter (PerkinElmer, Inc.). Binding data were analyzed by nonlinear regression analysis with the GraphPad Prism Software package (GraphPad Software, Inc., San Diego, Calif.) using the one-site competition model. […] These summary statistics were then converted back to K; values for data reporting.
Sequence of hM3 muscarinic receptor (P20309 whole entry): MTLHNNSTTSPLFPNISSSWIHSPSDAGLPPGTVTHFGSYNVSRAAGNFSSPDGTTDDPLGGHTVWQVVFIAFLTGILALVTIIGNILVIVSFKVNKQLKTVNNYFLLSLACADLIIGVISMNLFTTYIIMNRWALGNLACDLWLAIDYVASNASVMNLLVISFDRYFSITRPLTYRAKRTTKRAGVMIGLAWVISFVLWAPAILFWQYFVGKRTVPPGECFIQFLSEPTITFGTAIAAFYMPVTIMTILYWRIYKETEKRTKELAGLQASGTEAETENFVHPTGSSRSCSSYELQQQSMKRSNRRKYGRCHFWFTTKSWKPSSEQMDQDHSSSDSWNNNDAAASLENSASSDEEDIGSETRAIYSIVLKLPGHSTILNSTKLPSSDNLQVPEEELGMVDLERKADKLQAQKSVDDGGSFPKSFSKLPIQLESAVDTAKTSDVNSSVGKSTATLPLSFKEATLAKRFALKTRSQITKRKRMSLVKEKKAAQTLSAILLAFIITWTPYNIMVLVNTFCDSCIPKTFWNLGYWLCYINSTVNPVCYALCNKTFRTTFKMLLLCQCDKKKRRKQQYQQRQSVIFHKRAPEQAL

The target in test [2] is hβ2 adrenergic receptor (Homo sapiens (Human), UniProt P07550). In words: Assay for determining adrenergic receptor agonist potency (cAMP Flashplate, HEK-293 cells). It counts as cell-based. As to conditions: data rounded to nearest 1 nM. On the procedure:
The cell monolayer was lifted with 2 mM EDTA in PBS. Cells were pelleted by centrifugation at 1,000 rpm, and cell pellets were either stored frozen at −80° C. or membranes were prepared immediately for use. cAMP assays were performed in a radioimmunoassay format using the Flashplate Adenylyl Cyclase Activation Assay System with [^125I]-cAMP (NEN SMP004, PerkinElmer Life Sciences Inc., Boston, Mass.), according to the manufacturers instructions. […] Cells were rinsed with PBS and detached in dPBS (Dulbecco's Phosphate Buffered Saline, without CaCl2 and MgCl2) containing 2 mM EDTA or Trypsin-EDTA solution (0.05% trypsin/0.53 mM EDTA). After counting cells in Coulter cell counter, cells were pelleted by centrifugation at 1,000 rpm and re-suspended in stimulation buffer containing TBMX (PerkinElmer Kit) pre-warmed to room temperature to a concentration of 1.6×10^6 to 2.8×10^6 cells/mL. About 40,000 to 80,000 cells per well were used in this assay. […] Reactions were incubated for 10 min at 37° C. and stopped by adding 100 μL of cold detection buffer containing [^125I]-cAMP (NEN SMP004, PerkinElmer Life Sciences, Boston, Mass.). […] Data were analyzed by nonlinear regression analysis with the GraphPad Prism Software package (GraphPad Software, Inc., San Diego, Calif.) with the sigmoidal equation. The Cheng-Prusoff equation (Cheng Y, and Prusoff W H., Biochemical Pharmacology, 1973, 22, 23, 3099-108) was used to calculate the EC50 values.

Test [3] deals with MCh-induced bronchoconstriction. Description: Einthoven assay: bronchoprotection against methacholine (MCh)-induced bronchoconstriction. The test is classed as in vivo, rat. The following applies: inhaled or nasal; rat, 100 μg by inhalation, 24 h after administration; read-out: Broncho. at 24 h. The protocol: This assay measures the ability of a test compound to provide bronchoprotection against methacholine (MCh)-induced bronchoconstriction in a rat. Male Sprague-Dawley rats (Harlan, Indianapolis, Ind.), weighing between 200 g and 350 g, were used for all studies. Test compound or vehicle (sterile deionized water) were dosed by inhalation (1H) over a 10 min period in a pie shaped inhalation chamber (R+S Molds, San Carlos, Calif.) using 5 mL of dosing solution. […] Rats were dosed with 100 μg of test compound unless otherwise indicated. At predetermined time points, rats were anesthetized with an intraperitoneal (IP) injection of 120 mg/kg inactin (thiobutabarbital). A supplemental dose (40 mg/kg, IP) was administered if the animal responded to physical stimuli (e.g. toe pinch). The surgical site was shaved and a 1-2 cm midline incision of the ventral aspect of the neck was made. The jugular vein was isolated and cannulated with a saline-filled polyethylene catheter (PE-50) to allow IV infusion of MCh. Trachea was dissected free and cannulated with a 14G needle (#NE-014, Small Parts, Miami Lakes, Fla.). After placement of the tracheal cannula, each rat was ventilated using a respirator (Model 683, Harvard Apparatus, Inc., MA) set at a stroke volume of 1 mL/100 g body weight (but not exceeding 2.5 mL volume) and a rate of 90 strokes per minute. A T-connector was placed along the respirator expiratory tubing to allow for measurement of changes in ventilation pressure (VP) using a Biopac transducer that was connected to a Biopac […]) pre-amplifier. Body temperature was maintained at 37° C. using a heating pad. Changes in VP were recorded using the Acknowledge Data Collection Software (Santa Barbara, Calif.). Baseline values were collected for at least 2.5 min. Rats were then challenged with non-cumulative intravenous (IV) infusions of 40 and 80 μg/kg MCh. MCh was infused intravenously for 2.5 minutes from a syringe pump (sp210iw, World Precision Instruments, Inc., Sarasota, Fla.) at a rate of 2 mL/kg/min, with a 2 minute interval between the two doses of MCh. Changes in ventilation pressure (cm H2O) in treated animals are expressed as % inhibition of MCh response relative to control animals. Other bronchoconstrictors, such as histamine and acetylcholine, can be used in place of MCh in this assay. Additionally, guinea pigs can be used instead of rats. […] Inhibition greater than or equal to 30 percent at 24 h is indicative of a long duration of action.

[4] abbreviates: hM3 Muscarinic Receptor Binding, data rounded to nearest 0.1 nM.

Sequence of hβ2 adrenergic receptor (P07550 whole entry): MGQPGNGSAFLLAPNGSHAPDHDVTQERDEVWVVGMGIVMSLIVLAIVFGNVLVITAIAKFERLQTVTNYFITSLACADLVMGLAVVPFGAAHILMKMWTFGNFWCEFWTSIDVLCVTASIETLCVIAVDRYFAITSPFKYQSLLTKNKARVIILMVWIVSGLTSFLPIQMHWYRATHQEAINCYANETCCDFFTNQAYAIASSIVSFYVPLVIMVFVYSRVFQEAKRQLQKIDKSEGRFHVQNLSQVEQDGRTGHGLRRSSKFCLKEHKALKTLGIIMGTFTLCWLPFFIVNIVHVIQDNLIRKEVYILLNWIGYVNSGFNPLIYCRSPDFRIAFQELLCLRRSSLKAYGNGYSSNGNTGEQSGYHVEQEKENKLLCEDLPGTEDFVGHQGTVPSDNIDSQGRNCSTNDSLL

Turning to `CN(C(=O)CCN1CCC(OC(=O)Nc2ccccc2-c2ccccc2)CC1)c1cccc(CC(=O)Nc2ccc(CCNC[C@H](O)c3ccc(O)c4[nH]c(=O)ccc34)cc2)c1` [Compound I-63], affinity in test [1] was put at a Ki of 0.1 nM. The molecule further had an EC50 in test [2] of 1 nM.
The molecule `CN(CCCC(=O)Nc1ccc(CNC[C@H](O)c2ccc(O)c3[nH]c(=O)ccc23)cc1)C(=O)CCN1CCC(OC(=O)Nc2ccccc2-c2ccccc2)CC1` [Compound I-1, Biphenyl-2-ylcarbamic Acid 1-(2-{[3-(4-{[(R)-2-Hydroxy-2-(8-hydroxy-2-oxo-1,2-dihydroquinolin-5-yl)ethylamino]methyl}-phenylcarbamoyl)propyl]methylcarbamoyl}ethyl)piperidin-4-yl Ester Ditrifluoroacetic Acid Salt] came in with a Ki in test [1] (setting [4]) of 0.1 nM. Further, the concentration giving a half-maximal response (EC50) in test [2] is 3 nM.
With `CC(Cc1cccc(CCNC(=O)Cc2ccc(N(C)C(=O)CCN3CCC(OC(=O)Nc4ccccc4-c4ccccc4)CC3)cc2)c1)NC[C@H](O)c1ccc(O)c2[nH]c(=O)ccc12` (some centres unmarked) [Compound I-85], in test [3], the inhibition in vivo at 0.1 mg is > 30%.
As to `Cc1c(CNC(=O)Cc2ccc(N(C)C(=O)CCN3CCC(OC(=O)Nc4ccccc4-c4ccccc4)CC3)cc2)cccc1CC(C)NC[C@H](O)c1ccc(O)c2[nH]c(=O)ccc12` (some centres unmarked) [Compound I-71], in test [1], the Ki amounted to 0.1 nM. In test [2], a half-maximal response (EC50) required 1 nM.
On the same counts, the results for `Cc1cc(NC(=O)Cc2cccc(N(C)C(=O)CCN3CCC(OC(=O)Nc4ccccc4-c4ccccc4)CC3)c2)c(C)cc1CNC[C@H](O)c1ccc(O)c2[nH]c(=O)ccc12` [Compound I-60] are 0.1 nM and 3 nM.
In the case of `CN(C(=O)CCN1CCC(OC(=O)Nc2ccccc2-c2ccccc2)CC1)c1cccc(CC(=O)Nc2cccc(CCNC[C@H](O)c3ccc(O)c4[nH]c(=O)ccc34)c2)c1` [Compound I-62], in test [3], the inhibition in vivo at 0.1 mg is > 30%.
Molecule `C[C@@H](Cc1ccc(CCNC(=O)c2ccc(N(C)C(=O)CCN3CCC(OC(=O)Nc4ccccc4-c4ccccc4)CC3)cc2)cc1)NC[C@H](O)c1ccc(O)c2[nH]c(=O)ccc12` [Compound I-58] gave a Ki in test [1] of 0.2 nM. In addition, in test [2], the concentration giving a half-maximal response (EC50) came to 1 nM.
The molecule `CC(Cc1cc(CC(=O)NCc2ccc(N(C)C(=O)CCN3CCC(OC(=O)Nc4ccccc4-c4ccccc4)CC3)cc2)ccc1F)NC[C@H](O)c1ccc(O)c2[nH]c(=O)ccc12` (some centres unmarked) [Compound I-84] gave an inhibition constant (Ki) in test [1] (setting [4]) of 0.1 nM. Further, the EC50 in test [2] was found to be 1 nM.
On to `C[C@@H](Cc1cccc(CCC(=O)NCc2ccc(N(C)C(=O)CCN3CCC(OC(=O)Nc4ccccc4-c4ccccc4)CC3)cc2)c1)NC[C@H](O)c1ccc(O)c2[nH]c(=O)ccc12` [Compound I-93], for which affinity in test [1] was put at a Ki of 0.8 nM. The molecule further came in with an EC50 in test [2] of 11 nM.
Take `CN(C(=O)CCN1CCC(OC(=O)Nc2ccccc2-c2ccccc2)CC1)c1ccc(CNC(=O)Cc2cccc(CCNC[C@H](O)c3ccc(O)c4[nH]c(=O)ccc34)c2)cc1` [Compound I-76]: in test [1] (setting [4]), the Ki was 0.3 nM. The EC50 in test [2] was found to be 1 nM.
The molecule `CN(C(=O)CCN1CCC(OC(=O)Nc2ccccc2-c2ccccc2)CC1)c1ccc(CNC(=O)Cc2ccc(CNC[C@H](O)c3ccc(O)c4[nH]c(=O)ccc34)cc2)cc1` [Compound I-75] had a Ki in test [1] of 0.2 nM. For the same molecule, in test [2], the EC50 was 2 nM.
Consider `COc1ccc(CC(=O)Nc2cccc(N(C)C(=O)CCN3CCC(OC(=O)Nc4ccccc4-c4ccccc4)CC3)c2)cc1CC(C)NC[C@H](O)c1ccc(O)c2[nH]c(=O)ccc12` (some centres unmarked) [Compound I-54], for which, in test [1] (setting [4]), the affinity corresponds to a Ki of 0.2 nM. In addition, the EC50 in test [2] is 2 nM.
For the molecule `CN(C(=O)CCN1CCC(OC(=O)Nc2ccccc2-c2ccccc2)CC1)c1cccc(CC(=O)Nc2ccc(CNC[C@H](O)c3ccc(O)c4[nH]c(=O)ccc34)cc2)c1` [Compound I-59], affinity in test [1] was put at a Ki of 0.1 nM. In test [2], a half-maximal effect (EC50) was put at 3 nM.
In test [1] (setting [4]), `CN(C(=O)CCN1CCC(OC(=O)Nc2ccccc2-c2ccccc2)CC1)c1ccc(CNC(=O)Cc2cccc(CNC[C@H](O)c3ccc(O)c4[nH]c(=O)ccc34)c2)cc1` [Compound I-74] returned a Ki of 0.3 nM. Moreover, the EC50 in test [2] was 2 nM.
For `Cc1ccc(C(=O)NCc2ccc(CC(C)NC[C@H](O)c3ccc(O)c4[nH]c(=O)ccc34)cc2)cc1N(C)C(=O)CCN1CCC(OC(=O)Nc2ccccc2-c2ccccc2)CC1` (some centres unmarked) [Compound I-47], the affinity in test [1] (setting [4]), expressed as Ki, was 0.2 nM. Moreover, the concentration for a half-maximal effect (EC50) in test [2] came to 3 nM.
Regarding `Cc1ccc(CNC(=O)Cc2ccc(N(C)C(=O)CCN3CCC(OC(=O)Nc4ccccc4-c4ccccc4)CC3)cc2)cc1CC(C)NC[C@H](O)c1ccc(O)c2[nH]c(=O)ccc12` (some centres unmarked) [Compound I-70], affinity in test [1] (setting [4]) was put at a Ki of 0.3 nM. The same molecule registered an EC50 in test [2] of 1 nM.
In the case of `CN(C(=O)CCN1CCC(OC(=O)Nc2ccccc2-c2ccccc2)CC1)c1ccc(CNC(=O)CCc2cccc(CNC[C@H](O)c3ccc(O)c4[nH]c(=O)ccc34)c2)cc1` [Compound I-96], the 50% effective concentration (EC50) in test [2] stood at 3 nM.
In test [1], `C[C@H](Cc1ccc(CCNC(=O)Cc2ccc(N(C)C(=O)CCN3CCC(OC(=O)Nc4ccccc4-c4ccccc4)CC3)cc2)cc1)NC[C@H](O)c1ccc(O)c2[nH]c(=O)ccc12` [Compound I-90] had a Ki of 0.1 nM. The molecule also showed an EC50 in test [2] of 1 nM.
As for `CN(C(=O)CCN1CCC(OC(=O)Nc2ccccc2-c2ccccc2)CC1)c1cccc(C(=O)Nc2ccc(CNC[C@H](O)c3ccc(O)c4[nH]c(=O)ccc34)cc2)c1` [Compound I-25, Ditrifluoroacetic Acid], the Ki in test [1] was determined as 0.1 nM. In addition, the EC50 in test [2] came to 1 nM.
`COc1ccc(CNC(=O)Cc2ccc(N(C)C(=O)CCN3CCC(OC(=O)Nc4ccccc4-c4ccccc4)CC3)cc2)cc1CC(C)NC[C@H](O)c1ccc(O)c2[nH]c(=O)ccc12` (some centres unmarked) [Compound I-72] had a Ki in test [1] (setting [4]) of 0.4 nM. The EC50 in test [2] stood at 4 nM.
As for `C[C@H](Cc1ccc(CCNC(=O)c2ccc(N(C)C(=O)CCN3CCC(OC(=O)Nc4ccccc4-c4ccccc4)CC3)cc2)cc1)NC[C@H](O)c1ccc(O)c2[nH]c(=O)ccc12` [Compound I-57], affinity in test [1] was put at a Ki of 0.1 nM. In test [2], this molecule returned an EC50 of 1 nM.
For `COc1ccc(NC(=O)CCCN(C)C(=O)CCN2CCC(OC(=O)Nc3ccccc3-c3ccccc3)CC2)cc1CCNC[C@H](O)c1ccc(O)c2[nH]c(=O)ccc12` [Compound I-9], in test [1], the inhibition constant Ki was 0.1 nM. In addition, in test [2], the EC50 is 6 nM.
